Laboratory results as given in patent US20260265199A1, “CRYSTALLINE FORMS OF (R)-2-AMINO-5-(4-(2-(3,5-DIFLUOROPHENYL)-2-HYDROXYACETAMIDO)-2-METHYLPHENYL)-N-ISOPROPYLNICOTINAMIDE AND METHODS FOR USING THE SAME” (HIBERCELL, INC., priority 2023, published 2026).
Structures can show the parent of a compound that is named as a salt. Where two headings read alike, the source gives them in different places.

Test: Phase 1a study: pharmacokinetics after oral BID dosing in subjects with advanced solid tumors
Type: in vivo, human
Parameters: Increase in mean: scale not given here
Settings: for Increase in mean: 600 mg vs preceding dose level (400 mg); for Cmax / half-life / AUC(0-t) / Vd/F / Tmax: human, in vivo, po; for Vd/F: read-out: Vz/F
Method: This example describes a first in human, Phase 1a, multi-center, open-label study to establish the maximum tolerated dose (MTD) and evaluate the safety and tolerability of oral dosing of Form A of the hemi-fumarate salt of the compound of formula (I) (Example 11) in a dose-escalating fashion. Form A of the hemi-fumarate salt was orally administered BID every day with food or within 30 minutes of completing a meal, starting at 25 mg, with doses escalating to 50, 100, 200, 400, 600, and 900 mg BID as safety allows for each 3-week treatment cycle.
Up to 36 qualified subjects at 3 to 5 US sites, who have specific tumor types of renal cell carcinoma (RCC), gastric cancer (GC), metastatic breast cancer (MBC), small cell lung cancer (SCLC), and other solid tumors (e.g., non-small cell lung cancer, colorectal cancer, carcinoma of unknown primary) with the exception of rapidly progressing neoplasms (e.g., pancreatic cancer, glioblastoma, hepatocellular carcinoma) received Form A of the hemi-fumarate salt. Every effort was made to ensure approximately 50% of all subjects enrolled were subjects with RCC and GC. The starting dose level was 25 mg twice daily (BID), escalating to 50, 100, and 200 mg BID as safety allows, following the Bayesian Optimal Interval (BOIN) design. The safety monitoring committee (SMC) evaluated the dose-limiting toxicities (DLTs) and cumulative safety and PK data at the end of each cohort. Based on the SMC recommendations after a comprehensive review of PK and safety data for 200 mg BID dose, higher dose levels were evaluated, starting with 400 mg BID. The dose escalated to 600 mg and then 900 mg following the BOIN design starting with 1 subject at each escalated dose, until the MTD was reached or the sponsor or SMC declares the dose most appropriate for clinical development. This Phase 1a will be expanded into a Phase 1b/2a study through a protocol amendment and will then assess the dose and tumor type(s) selected in Phase 1a as the most appropriate for further clinical development. Subjects were dosed until unacceptable toxicity, disease progression per immune-related Response Evaluation Criteria in Solid Tumors (iRECIST), subject withdrawal, any other administrative reasons, or after 2 years of treatment, whichever occurs first. Efficacy was assessed via Response Evaluation Criteria in Solid Tumors 1.1 (RECIST 1.1); computed tomography (CT) scans were conducted every 6 weeks. Safety, including occurrence of dose-limiting toxicities (DLTs), pharmacokinetics (PK), and biomarker parameters were also assessed.
Form A of the hemi-fumarate salt was orally administered BID with food or within 30 minutes of completing a meal, starting at 25 mg, with doses escalating to 50, 100, 200, 400, 600 and 900 mg BID as safety allowed. Up to 24 subjects were enrolled to ensure 12 subjects completed the study at the estimated MTD of Form A of the hemi-fumarate salt. Dosing occurred in 3-week cycles. Subjects spent Cycle 1/Day 1 (C1D1) in the clinic followed by an overnight stay for safety monitoring and PK sampling. Subjects were hospitalized for administration of first 3 doses: CID1 am and pm doses, and Cycle 1/Day 2 (C1D2) am dose; on Days 8, 15, and 21 the am dose was taken in the clinic after the planned PK samples. All other doses were self administered at home.
Results of Cohorts 1 to 6 the study are detailed in Tables 47-50 below.

[1] = 25 mg, 25 mg single oral dose, Cycle 1 Day 1, geometric mean, N = 3
[2] = 50 mg, 50 mg single oral dose, Cycle 1 Day 1, geometric mean, N = 3
[3] = 200 mg, 200 mg single oral dose, Cycle 1 Day 1, geometric mean, N = 5

Cc1cc(NC(=O)[C@H](O)c2cc(F)cc(F)c2)ccc1-c1cnc(N)c(C(=O)NC(C)C)c1 [Form A of the hemi-fumarate salt, (R)-2-amino-5-(4-(2-(3,5-difluorophenyl)-2-hydroxyacetamido)-2-methylphenyl)-N-isopropylnicotinamide]
Increase in mean (single oral dose, Cycle 1 Day 1): 3.03
Increase in mean (twice daily oral, Cycle 1 Day 21): 1.19
Cmax [1]: 120 ng/mL
half-life (25 mg, 25 mg single oral dose, Cycle 1 Day 1, geometric mean, N = 3, interpret with caution, terminal elimination phase not well captured, read-out: t1/2 (converted)): 8.99 h
AUC(0-t) (25 mg, 25 mg single oral dose, Cycle 1 Day 1, geometric mean, N = 3, read-out: AUC0-12): 850 ng·h/mL
AUC(0-t) (25 mg, 25 mg single oral dose, Cycle 1 Day 1, geometric mean, N = 3, read-out: AUC0-last): 850 ng·h/mL
Vd/F [1]: 147 L
Tmax (25 mg, 25 mg single oral dose, Cycle 1 Day 1, median, N = 3): 8 h
half-life (25 mg, 25 mg twice daily oral, Cycle 1 Day 21, N = 3, interpret with caution, terminal elimination phase not well captured, read-out: t1/2 (converted)): 16 h
Vd/F (25 mg, 25 mg twice daily oral, Cycle 1 Day 21, N = 3): 150 L
Cmax (25 mg, 25 mg twice daily oral, Cycle 1 Day 21, geometric mean, N = 3): 537 ng/mL
AUC(0-t) (25 mg, 25 mg twice daily oral, Cycle 1 Day 21, geometric mean, N = 3, read-out: AUC0-last): 4110 ng·h/mL
half-life (25 mg, 25 mg twice daily oral, Cycle 1 Day 21, geometric mean, N = 3, read-out: t1/2, eff (converted)): 35.8 h
Tmax (25 mg, 25 mg twice daily oral, Cycle 1 Day 21, median, N = 3): 2 h
Cmax [2]: 243 ng/mL
half-life (50 mg, 50 mg single oral dose, Cycle 1 Day 1, geometric mean, N = 3, interpret with caution, terminal elimination phase not well captured, read-out: t1/2 (converted)): 11.1 h
AUC(0-t) (50 mg, 50 mg single oral dose, Cycle 1 Day 1, geometric mean, N = 3, read-out: AUC0-12): 2090 ng·h/mL
AUC(0-t) (50 mg, 50 mg single oral dose, Cycle 1 Day 1, geometric mean, N = 3, read-out: AUC0-last): 2090 ng·h/mL
Vd/F [2]: 141 L
Tmax (50 mg, 50 mg single oral dose, Cycle 1 Day 1, median, N = 3): 4 h
Cmax (50 mg, 50 mg twice daily oral, Cycle 1 Day 21, geometric mean, N = 3): 978 ng/mL
AUC(0-t) (50 mg, 50 mg twice daily oral, Cycle 1 Day 21, geometric mean, N = 3, read-out: AUC0-last): 9070 ng·h/mL
half-life (50 mg, 50 mg twice daily oral, Cycle 1 Day 21, geometric mean, N = 3, read-out: t1/2, eff (converted)): 31.5 h
Tmax (50 mg, 50 mg twice daily oral, Cycle 1 Day 21, median, N = 3): 2 h
Cmax (100 mg, 100 mg single oral dose, Cycle 1 Day 1, geometric mean, N = 4): 380 ng/mL
AUC(0-t) (100 mg, 100 mg single oral dose, Cycle 1 Day 1, geometric mean, N = 4, read-out: AUC0-12): 2800 ng·h/mL
AUC(0-t) (100 mg, 100 mg single oral dose, Cycle 1 Day 1, geometric mean, N = 4, read-out: AUC0-last): 1930 ng·h/mL
Tmax (100 mg, 100 mg single oral dose, Cycle 1 Day 1, median, N = 4): 7 h
half-life (100 mg, 100 mg twice daily oral, Cycle 1 Day 21, N = 3, interpret with caution, terminal elimination phase not well captured, read-out: t1/2 (converted)): 37.6 h
Vd/F (100 mg, 100 mg twice daily oral, Cycle 1 Day 21, N = 3): 383 L
Cmax (100 mg, 100 mg twice daily oral, Cycle 1 Day 21, geometric mean, N = 3): 1310 ng/mL
AUC(0-t) (100 mg, 100 mg twice daily oral, Cycle 1 Day 21, geometric mean, N = 3, read-out: AUC0-last): 11700 ng·h/mL
half-life (100 mg, 100 mg twice daily oral, Cycle 1 Day 21, geometric mean, N = 3, read-out: t1/2, eff (converted)): 30.1 h
Tmax (100 mg, 100 mg twice daily oral, Cycle 1 Day 21, median, N = 3): 4 h
Cmax [3]: 839 ng/mL
half-life (200 mg, 200 mg single oral dose, Cycle 1 Day 1, geometric mean, N = 5, interpret with caution, terminal elimination phase not well captured, read-out: t1/2 (converted)): 20.6 h
AUC(0-t) (200 mg, 200 mg single oral dose, Cycle 1 Day 1, geometric mean, N = 5, read-out: AUC0-12): 5800 ng·h/mL
AUC(0-t) (200 mg, 200 mg single oral dose, Cycle 1 Day 1, geometric mean, N = 5, read-out: AUC0-last): 5800 ng·h/mL
Vd/F [3]: 331 L
Tmax (200 mg, 200 mg single oral dose, Cycle 1 Day 1, median, N = 5): 4 h
half-life (200 mg, 200 mg twice daily oral, Cycle 1 Day 21, N = 4, interpret with caution, terminal elimination phase not well captured, read-out: t1/2 (converted)): 7.71 h
Vd/F (200 mg, 200 mg twice daily oral, Cycle 1 Day 21, N = 4): 79.4 L
Cmax (200 mg, 200 mg twice daily oral, Cycle 1 Day 21, geometric mean, N = 4): 2990 ng/mL
AUC(0-t) (200 mg, 200 mg twice daily oral, Cycle 1 Day 21, geometric mean, N = 4, read-out: AUC0-last): 27200 ng·h/mL
half-life (200 mg, 200 mg twice daily oral, Cycle 1 Day 21, geometric mean, N = 4, read-out: t1/2, eff (converted)): 35.9 h
